# Data published in patent US20070155803A1, “Protease inhibitors” (ProZymex A/S, priority 2003, published 2007).
# Square brackets hold non-standard residues; d marks the D form. Peptide text beside a SMILES is read from it. Phe(3-F) = N[C@@H](Cc1cccc(F)c1)C(=O)O; hPhe = N[C@@H](CCc1ccccc1)C(=O)O; Abu = CC[C@H](N)C(=O)O; azaGly = NNC(=O)O
# Experiments:
# [1] = target: T1, Human neutrophil elastase (Homo sapiens, UniProt P08246); assay: Human neutrophil elastase assay; format: biochemical
# T1 construct: purchased Calbiochem 324681
# T1 sequence (P08246 30-267): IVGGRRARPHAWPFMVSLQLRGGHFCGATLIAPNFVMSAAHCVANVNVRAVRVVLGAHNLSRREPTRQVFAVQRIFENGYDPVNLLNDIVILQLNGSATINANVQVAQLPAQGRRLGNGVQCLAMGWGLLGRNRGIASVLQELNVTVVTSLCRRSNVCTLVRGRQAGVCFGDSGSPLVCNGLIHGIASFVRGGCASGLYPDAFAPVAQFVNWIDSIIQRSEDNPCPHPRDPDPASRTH
# Experimental: Human Neutrophil Elastase Assay
# Using this assay, the selectivity of a compound of the invention for hDPP-I over human neutrophil elastase was determined, using a fluorogenic substrate.
# Buffer containing 100 mM Tris/HCl pH 7.5 (25° C.), and 500 mM NaCl.
# Human neutrophil elastase (Calbiochem Cat # 324681, 50 ng/µL stock) was reconstituted in 50 mM sodium acetate pH 5.5 and 200 mM NaCl, then stored at −20° C. Diluted to 1 ng/μL in buffer just prior to experiment.
# MeOSuc-Ala-Ala-Pro-Val-AMC (Calbiochem Cat # 324740) was dissolved in buffer to 4 mM (398 μL/mg) just prior to experiment. Km was determined to be 560 μM.
# The assay was performed in 96-well plates. 80 μL assay buffer was added to the well followed by 10 μL enzyme (1 ng/μL). Incubated for 10 min. at 37° C., then 10 μL substrate was added, and subsequently a compound of the invention (10 μM in the assay) The excitation wavelength was 380 nm, and the emission was measured at 460 nm for 10-20 minutes at 37° C. Each measurement was made in duplicate. In the software (SOFTmax Pro) used for data,collection from the fluorometer (Molecular Devices: Gemini XS), it was ensured that the measured slopes were linear (R^2>0.99). Data was exported to GraphPad Prism and nonlinear regression was performed using the option sigmoidal dose-response (variable slope).
# Human liver cathepsin H = target: T2, Human liver cathepsin H (Homo sapiens, UniProt P09668); assay: Human liver cathepsin H assay; format: biochemical
# T2 construct: Human liver catheptin H (Enzyme System Products Cath-1; 25 μg); purchased Enzyme System Products Cath-1; host or cells: human liver
# T2 sequence (P09668 98-335): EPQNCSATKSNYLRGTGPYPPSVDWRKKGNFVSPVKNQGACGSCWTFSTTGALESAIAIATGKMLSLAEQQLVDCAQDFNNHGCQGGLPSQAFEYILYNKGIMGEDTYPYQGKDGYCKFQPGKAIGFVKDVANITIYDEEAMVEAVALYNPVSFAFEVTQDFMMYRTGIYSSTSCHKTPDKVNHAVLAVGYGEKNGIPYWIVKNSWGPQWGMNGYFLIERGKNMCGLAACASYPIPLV
# Experimental: Human Liver Cathepsin H Assay
# Using this assay, the selectivity of a compound of the invention for hDPP-I over human cathepsin H was determined, using a fluorogenic substrate.
# Human liver catheptin H (Enzyme System Products Cath-1; 25 μg) was solubilized in 60 μL enzyme buffer (giving a stock with a concentration of 417 ng/μL). Enzyme stock (5 μL) was diluted with 1245 μL enzyme-buffer. Prior to running experiment 1 μL 0.5 M DTT/100 μL enzyme solution was added. Incubated for 5 minutes on ice, then added to reaction mixture.
# ARG-AFC*2HBR (Enzyme System Products AF002; 10.6 mg) was dissolved in 1 mL DMSO, giving a 20 mM solution. Km for this substrate has been determined to be 27 μM
# The assay was performed in 96-well plates. 50 μL assay buffer was added to the well followed by 25 μL reference inhibitor (cystatin; stock 1 mg/mL, diluted with assay buffer to give 10 nM in assay) or a compound of the invention (diluted with assay buffer to give 10 μM in the assay). Then 25 μL (40 ng) enzyme was added, and 1 min. later (at 37° C.), 100 μL ARG-AFC substrate (15 μM in the assay) was added. The excitation wavelength was 400 nm, and the emission was measured at 505 nm for 10-20 minutes at 37° C. […] In the software (SOFTmax Pro) used for data collection from the fluorometer (Molecular Devices: Gemini XS) it was ensured that the measured slopes were linear (R^2>0.99). […]
# Human DPP-I = target: T3, Human DPP-I (Homo sapiens, UniProt P53634); assay: Human Dipeptidyl Peptidase I (DPP-I) assay, AFC substrate; format: biochemical; details: Gly-Phe-AFC substrate, pH 6.0, read-out: Primary enzymatic screening (IC50) DPP-I
# T3 construct: purchased UniZyme A/S
# T3 sequence (P53634 231-394 limits assumed): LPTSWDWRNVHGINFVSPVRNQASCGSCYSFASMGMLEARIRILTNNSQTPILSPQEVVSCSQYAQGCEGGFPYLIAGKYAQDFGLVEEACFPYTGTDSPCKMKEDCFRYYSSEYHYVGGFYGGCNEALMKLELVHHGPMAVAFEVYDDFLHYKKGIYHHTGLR
# T3 sequence (P53634 395-463 limits assumed): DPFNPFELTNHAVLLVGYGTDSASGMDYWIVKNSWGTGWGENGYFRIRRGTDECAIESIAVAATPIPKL
# T3 sequence (P53634 25-143 limits assumed): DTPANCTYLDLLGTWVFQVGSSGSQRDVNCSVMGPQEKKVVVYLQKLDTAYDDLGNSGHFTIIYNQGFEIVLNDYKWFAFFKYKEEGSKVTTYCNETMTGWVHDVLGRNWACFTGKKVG
# Experimental: Human Dipeptidyl Peptidase I (DPP-I) Assay
# Using this assay, the IC50 value of a compound of the invention as a DPP-I inhibitor was determined using an AFC substrate.
# 100 mM sodium phosphate (8.9 g Na2HPO4; M=177.99), 150 mM KCl (5.6 g KCl; M=74.6) and 1.5 mM EDTA (279 mg EDTA; M=372.2) was dissolved in 500 mL H2O, and pH was adjusted to 6.0. Cysteine*HCl (Sigma C-1276; M=157.6), 1 mg/mL assay buffer, corresponding to 6 mM, was added to the solution for activation of the DPP-I enzyme.
# Gly-Phe-AFC*TFA (Enzyme Systems Products AFC-033) was used as the substrate for determination of IC50 values. […] The substrate was solubilized in DMSO to give a 7.5 mM stock solution (2.2 mg of substrate was added to 0.5 mL DMSO).
# Human DPP-I (hDDP-I; obtained from UniZyme A/S, DK-2970 Horsholm, Denmark) was stored at −20° C. in a buffer containing 2.5 mM Na-phosphate, 150 mM NaCl, 2 mM cysteamine, 50% glycerol, pH 7.0 at a concentration of 2.5 mg/mL. This stock solution was diluted 200 times in the assay buffer.
# Th assay was performed in 96-well plates. […] The excitation wavelength was 400 nm, and the emission was measured at 505 nm for 10 minutes at 37° C. […] In the software (SOFTmax Pro) used for data collection from the fluorometer (Molecular Devices: Gemini XS), it was erisured that the measured slopes were linear (R^2>0.99). […]
# CYP3A4 = target: T4, CYP3A4 (Homo sapiens, UniProt P08684); assay: CYP3A4 assay (Vivid CYP3A4 Red Screening Kit); format: in vitro ADME; details: read-out: Metabolism: CYP enzymes (20 μM cutoff or IC50) CYP3A4
# T4 construct: purchased PanVera Vivid CYP3A4 Red Screening Kit
# T4 sequence (P08684 whole entry): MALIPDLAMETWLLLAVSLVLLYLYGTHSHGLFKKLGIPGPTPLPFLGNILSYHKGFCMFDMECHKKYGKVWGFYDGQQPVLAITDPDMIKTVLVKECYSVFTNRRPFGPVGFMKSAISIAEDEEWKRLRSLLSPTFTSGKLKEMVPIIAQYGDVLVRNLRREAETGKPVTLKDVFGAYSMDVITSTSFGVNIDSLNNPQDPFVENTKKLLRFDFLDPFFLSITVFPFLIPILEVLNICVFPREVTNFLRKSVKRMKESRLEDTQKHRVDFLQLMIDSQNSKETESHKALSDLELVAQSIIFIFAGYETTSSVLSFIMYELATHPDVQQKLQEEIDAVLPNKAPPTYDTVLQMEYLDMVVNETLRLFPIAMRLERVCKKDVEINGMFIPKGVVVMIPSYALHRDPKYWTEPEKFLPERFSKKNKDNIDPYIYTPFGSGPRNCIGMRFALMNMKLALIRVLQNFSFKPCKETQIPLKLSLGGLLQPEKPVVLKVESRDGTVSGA
# Experimental: Tubes thawed on ice. 2× reaction buffer dispensed (room temperature) in two eppendorf tubes (for Mix A and Mix B).
# Controls or compounds of the invention: Diluted to a concentration of 50 μM. Positive control compound: α-naphthoflavone.
# Negative controls: DMSO and H2O.
# Mix A: 485 μL reaction buffer, 10 μL regeneration system, 5 μL Baculosome reagent. Mixed gently and placed on ice.
# Mix B: 88.5 μL reaction buffer, 1.5 μL substrate, 10 μL 10 mM NADP^+.
# In a 96-well plate (Costar c-3904), 40 μL of 50 μM sample dispensed. 50 μl Mix A added. Incubated 20 min. at rt. Then, 10 μl of Mix B added. Fluorescence determined (Molecular Devices, SPECTRAmax Gemini EM): Ex: 409 nm, Em: 460 nm, at 37° C. for 20 min. (Automix: 5 s, top read.).
# Following the procedure for CYP1A2, using the appropriate kits below, the effect of a compound of the invention on the other CYP enzymes was determined:
# Vivid® CYP3A4 Red Screening Kit from PanVera.
structure (smiles),measurement,setting,value
"CC[C@H](N)C(=O)NNC(=O)N[C@@H](CCc1ccccc1)C(=O)N[C@@H](Cc1cccc(F)c1)C(N)=O [Example 11, 1-(2S-2-Aminobutanoyl)-4-[2S-N-[2S-3-(m-fluorophenyl)propan-2-yl-amide]-4-phenylbutan-2-yl-amide]semicarbazide] (H-[Abu][azaGly][hPhe][Phe(3-F)]-NH2)",Inhibition of neutrophil elastase (in words),[1],does not inhibit
same,IC50,"[1]; human neutrophil elastase, 10 μM cutoff, read-out: Secondary enzymatic screening (10 μM cutoff or IC50) Neutrophil elastase",> 10000 nM
same,Inhibition of Cathepsin H (in words),Human liver cathepsin H,does not inhibit
same,IC50,"Human liver cathepsin H; human liver cathepsin H, read-out: Secondary enzymatic screening (10 μM cutoff or IC50) Cathepsin H",3200 nM
same,IC50,Human DPP-I,40 ± 6 nM
same,IC50,CYP3A4,600 nM
